Consider 24 compounds from ChEMBL document CHEMBL1201862, “PubChem BioAssay data set” (2004).

The source made the active and inactive calls. Bounds are passed on as bounds.

Data set [1] in a line: Trypanosoma cruzi growth suppression in host cells – NIH3T3 host cells, beta-gal luminescence, confirmation (AID 2044).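 Also: intracellular parasites grown in NIH/3T3 mouse fibroblasts as host cells; luminescent beta-galactosidase reporter signal from transgenic T. cruzi replicating inside host cells; inhibitors lower the luminescence signal.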 Type of data set: functional, cell-based.
Data set [2] is described as follows: NIH3T3 cell viability loss – ATP luminescence, mouse fibroblasts, counter-screen, dose response (AID 2010).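 Also: cells exposed to compound for about 90 hours before reading.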 Type of data set: functional, cell-based.
Data set [3] deals with Cytochrome P450 2C19 (Homo sapiens, UniProt P33261). The experiment in a line: Cytochrome panel assay with activity outcomes. Panel member name: p450-cyp2c19 Compounds with AC50 equal or less than 10 uM are considered active. The class given is functional.
Sequence of Cytochrome P450 2C19 (P33261 whole entry): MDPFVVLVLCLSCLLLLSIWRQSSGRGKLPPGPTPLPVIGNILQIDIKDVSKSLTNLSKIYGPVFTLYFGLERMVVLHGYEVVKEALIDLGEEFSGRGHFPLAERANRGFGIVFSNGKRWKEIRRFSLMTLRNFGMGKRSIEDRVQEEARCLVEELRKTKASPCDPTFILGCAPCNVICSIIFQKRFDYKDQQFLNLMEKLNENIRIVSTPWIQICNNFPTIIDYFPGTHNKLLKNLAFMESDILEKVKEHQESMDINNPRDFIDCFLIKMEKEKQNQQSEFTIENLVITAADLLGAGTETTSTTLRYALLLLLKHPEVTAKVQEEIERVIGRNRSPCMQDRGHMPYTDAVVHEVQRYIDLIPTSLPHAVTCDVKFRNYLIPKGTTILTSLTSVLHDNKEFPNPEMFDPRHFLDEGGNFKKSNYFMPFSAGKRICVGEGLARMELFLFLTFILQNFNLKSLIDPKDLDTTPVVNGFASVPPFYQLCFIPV
The test system of data set [4] is Streptococcus sp. 'group A'. As to the kind of experiment: Streptococcus pyogenes SK(-)GAS viability under kanamycin – luminescence, BacTiterGlo, confirmation, counter-screen for streptokinase expression inhibitor project, dose response (AID 1900). The class given is functional, organism-based. A general note: The purpose of a counterscreen is to sort out artefacts and off-target activity.

For data set [5], the system named is Streptococcus. As to the kind of experiment: GAS UMAA2166 growth inhibition – luminescence, BacTiterGlo, counter-screen for streptokinase expression inhibitor project, dose response (AID 1915).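 Also: potency for reduction of bacterial viability or growth.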 Type of data set: functional, organism-based.
Data set [6] addresses T1, Streptokinase A (Streptococcus pyogenes serotype M1, UniProt P10520).
T1 sequence (P10520 whole entry): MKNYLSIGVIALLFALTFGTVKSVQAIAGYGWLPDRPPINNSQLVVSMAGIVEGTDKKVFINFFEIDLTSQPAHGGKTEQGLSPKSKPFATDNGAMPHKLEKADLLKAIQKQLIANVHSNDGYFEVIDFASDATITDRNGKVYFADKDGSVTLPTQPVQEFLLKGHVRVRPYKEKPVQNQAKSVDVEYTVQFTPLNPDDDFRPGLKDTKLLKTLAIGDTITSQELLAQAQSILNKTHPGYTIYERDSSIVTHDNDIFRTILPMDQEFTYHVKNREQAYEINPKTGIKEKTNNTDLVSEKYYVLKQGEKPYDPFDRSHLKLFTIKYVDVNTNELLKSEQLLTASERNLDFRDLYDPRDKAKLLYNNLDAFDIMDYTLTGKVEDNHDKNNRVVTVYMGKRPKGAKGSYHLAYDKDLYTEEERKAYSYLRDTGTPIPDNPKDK
The experiment in a line: viability-normalized secreted streptokinase activity reduction – plasminogen activation absorbance, OD405, dose response (AID 1914).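 Also: secreted streptokinase activity via plasminogen activation per viability signal from cell pellet.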 The class given is functional, Streptococcus pyogenes M1 GAS.

As to `Cc1ccc(C)c(NC(=S)N2CCC(c3nc4ccccc4s3)CC2)c1`, the EC50 in data set [1] was 3.67 µM (active); in data set [2] it was > 30 µM (not active). Turning to `CCOC(=O)C1CN(S(=O)(=O)c2cccc(C(F)(F)F)c2)c2cc(CC(=O)OC)ccc2O1` (stereo not given), in data set [3] (read-out: AC50), the AC50 is 0.282 µM (inconclusive). The same measure, in the same setting: the same measure for `COc1ccc(C(C(=O)NC(C)(C)C)N(C(=O)CNC(=O)c2cccs2)c2ccc(C)cc2)cc1OC` (stereo not given): 17.8 µM (inconclusive).

For the compound `COc1cc(CN2CCCC(C(=O)c3ccccc3SC)C2)cc(OC)c1` (stereo not given), the results for the EC50 in data set [1] and in data set [2] were 0.557 µM (active) and > 60 µM (not active), respectively. Regarding `Cc1ccc(Cn2c(O)c(N=NC(S)=Nc3ccccc3F)c3ccccc32)cc1`, the EC50 in data set [1] was 0.886 µM (active); in data set [2], 17.4 µM (active). Consider `CCCc1nnc(NC(=O)Cn2cnc3ccccc3c2=O)s1`, for which the AC50 in data set [3] (read-out: AC50) is 25.1 µM (inconclusive).

With `Cc1cccc(OCCCCc2c(C)n[nH]c2C)c1C`, the results for the EC50 in data set [4] and in data set [5] were 6.66 µM (active) and 17 µM (active), respectively.

Consider `Cc1ccc(NC(=O)CCC(=O)NNS(=O)(=O)c2ccccc2)c(C)c1`, for which, in data set [3] (read-out: AC50), the AC50 is 17.8 µM (inconclusive). For the compound `O=C(NCc1ccccc1)C(=O)Nc1nc(-c2ccccc2)cs1`, the EC50 in data set [4] was 5.38 µM (active); in data set [5], 14.1 µM (active); in data set [6], > 150 µM (not active). For the compound `N#Cc1c(N2CCOCC2)nc(N2CCCCC2)c2c1CCN(C1CCCCC1)C2`, the results for the EC50 in data set [1] and in data set [2] were 0.251 µM (active) and > 30 µM (not active), respectively. Taken in the same sequence, the figures for `CCN(CC)CCN(C(=O)CCS(=O)(=O)c1ccccc1)c1nc2cc3c(cc2s1)OCO3` were 0.794 µM (active) and > 60 µM (not active).

On to `Cc1oc(-c2ccc(F)cc2)nc1CN(Cc1ccccn1)CC1CCCO1` (stereo not given), for which the EC50 in data set [4] was 30.4 µM (active); in data set [5] it was > 150 µM (not active); in data set [6], > 150 µM (not active). On to `CN(C)CCCN(C(=O)CCc1ccccc1)c1nc2c(F)cccc2s1`, for which the figures for the EC50 in data set [1] and in data set [2] were 0.819 µM (active) and > 30 µM (not active), respectively. With `CCOc1ccc(NC(=O)CC2C(=O)N(C)C(=S)N2CCCc2ccccc2)cc1` (stereo not given), the 50% effective concentration (EC50) in data set [1] is 2.4 µM (active); in data set [2], > 60 µM (not active). With `COc1ccccc1CN1CC(C(=O)NCc2ncccc2C)CCC1=O` (stereo not given), the EC50 in data set [4], in data set [5] and in data set [6] was > 150 µM (not active) in each case.

For `Cc1cccc(OCC(=O)Nc2ccc(C(=O)Nc3ccccc3C(=O)O)cc2)c1C`, the EC50 is 6.06 µM (active) in data set [4], > 150 µM (not active) in data set [5] and > 150 µM (not active) in data set [6]. As to `Cc1c(Br)c([N+](=O)[O-])nn1CC(=O)NCc1ccccn1`, the half-maximal activity concentration (AC50) result in data set [3] is given as “inconclusive”. For the compound `CO[C@@H]1COC(=O)[C@H]2CCCN2C(=O)C/C=C\[C@@H](C)[C@H](OC)COC(=O)[C@H]2CCCN2C(=O)C/C=C\[C@H]1C`, in data set [3], the AC50 entry is recorded as “inconclusive”. Take `O=C(O)CCCCCCCCc1cn(Cc2ccc(C(=O)c3ccccc3)cc2)nn1`: the EC50 is > 60 µM (not active) in data set [1] and 6.22 µM (active) in data set [2]. `Cc1ccccc1-c1cc(-c2ccccc2O)[nH]n1`: the EC50 in data set [4] was 9.25 µM (active); in data set [5], > 150 µM (not active). For the compound `Cc1ccccc1-c1cc(-c2ccccc2O)n[nH]1`, in data set [6], the EC50 was 66.2 µM (inconclusive).

`Cc1[nH]c(-c2ccc(F)cc2)cc1C(=O)N1CCN(c2cccc(Cl)c2)CC1`: the results for the EC50 in data set [4], in data set [5] and in data set [6] were 3.8 µM (active), 11.8 µM (active) and > 150 µM (not active), respectively. Take `CC(C)Cn1c(=O)c(C(=O)N/N=C/c2cccc(F)c2)c(O)c2ccccc21`: the values for the EC50 in data set [4] and in data set [5] were 1.28 µM (active) and 3.69 µM (active), respectively. With `C/N=C(N)/N=C(\N)Nc1cc2ccccc2c2ccccc12`, in data set [3] (read-out: AC50), the AC50 is 3.98 µM (inconclusive).

For orientation: EC50 means the midpoint of the concentration-response curve. Usually AC50 stands for the midpoint of the concentration-response curve, whichever way the signal moves.
